Target: RAF proto-oncogene serine/threonine-protein kinase (Homo sapiens, UniProt P04049)
Test: Kinase Assay: Protein kinase assay: Assay platform was used to measure kinase/inhibitor interactions as described previously (Anastassiadis et al., 2011). In brief, for each reaction, kinase and substrate were mixed in a buffer containing 20 mM HEPES (pH 7.5), 10 mM MgCl2, 1 mM EGTA, 0.02% Brij35, 0.02 mg/mL BSA, 0.1 mM Na3VO4, 2 mM DTT, and 1% DMSO. All compounds were solubilized in DMSO. Compounds were then added to each reaction mixture via acoustic dispense using an ECHO 550 nanoliter dispenser. For human RAF1 testing, human MEK1 (K97R) was used as a substrate at a concentration of 3 micromolar, with a final ATP concentration of 10 micromolar. For human BRAF testing, human MEK1 (K97R) was used as a substrate at 1 micromolar concentration, with a final ATP concentration of 25 micromolar. […] After a 20-min incubation, ATP (Sigma-Aldrich, St. Louis, Mo. 63178) and [g33P] ATP (specific activity 10 microCi/microliter) purchased at PerkinElmer (Boston, Mass., 02118 Cat #BLU 003H250UC) were added at a final total concentration of 10 mM. Reactions were carried out at room temperature for 2 hr and spotted onto P81 ion exchange cellulose chromatography paper (Reaction Biology). Filter paper was washed in 0.75% phosphoric acid to remove unincorporated ATP. The percent remaining kinase activity relative to a vehicle-containing (DMSO) kinase reaction was calculated for each kinase/inhibitor pair. […]

Chain of RAF proto-oncogene serine/threonine-protein kinase (P04049 whole entry): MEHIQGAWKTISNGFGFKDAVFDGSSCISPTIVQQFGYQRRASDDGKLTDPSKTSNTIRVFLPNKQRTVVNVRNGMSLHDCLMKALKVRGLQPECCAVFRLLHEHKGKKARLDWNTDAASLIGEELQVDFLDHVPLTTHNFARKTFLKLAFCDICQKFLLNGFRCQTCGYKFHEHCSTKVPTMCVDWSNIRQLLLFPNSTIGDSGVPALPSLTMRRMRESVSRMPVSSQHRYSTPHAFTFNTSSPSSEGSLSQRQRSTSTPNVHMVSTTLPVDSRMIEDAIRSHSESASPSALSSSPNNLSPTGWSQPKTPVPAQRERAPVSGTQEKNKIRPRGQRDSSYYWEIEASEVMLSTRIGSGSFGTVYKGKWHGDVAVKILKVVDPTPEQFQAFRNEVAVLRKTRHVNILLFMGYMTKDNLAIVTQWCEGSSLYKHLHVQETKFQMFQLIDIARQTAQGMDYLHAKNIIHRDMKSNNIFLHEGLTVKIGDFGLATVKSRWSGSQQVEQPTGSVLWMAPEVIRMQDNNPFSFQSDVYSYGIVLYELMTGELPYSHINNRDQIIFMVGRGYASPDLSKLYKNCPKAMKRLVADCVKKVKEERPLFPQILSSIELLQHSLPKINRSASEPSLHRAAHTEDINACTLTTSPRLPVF

- IC50: < 10 nM
Compound: CNc1ncc2cc(-c3cc(NC(=O)N4CC[C@H](C(F)(F)F)C4)c(F)cc3C)c(C)nc2n1

— ChEMBL document CHEMBL5729738, “Inhibitors of RAF kinases” (2023)
